Assay results reported in PubChem BioAssay (NCI).
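Following 48 hours of exposure in 96-well plates, responses at five concentrations were used to interpolate endpoints linearly. The concentration for 50% growth inhibition is given as GI50. TGI denotes the concentration required for complete inhibition of growth.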

Key:
Assay in all cases: NCI-60 cell line screen, 48 h
ACHN renal = system: ACHN renal
NCI-H23 lung = system: NCI-H23 lung
UO-31 renal = system: UO-31 renal
NCI-H226 lung = system: NCI-H226 lung
LOX IMVI melanoma = system: LOX IMVI melanoma
MDA-MB-435 = system: MDA-MB-435
MOLT-4 leukemia = system: MOLT-4 leukemia
HCT-116 colon = system: HCT-116 colon
SF-268 CNS = system: SF-268 CNS
DU-145 prostate = system: DU-145 prostate
OVCAR-4 ovarian = system: OVCAR-4 ovarian
OVCAR-5 ovarian = system: OVCAR-5 ovarian
MALME-3M melanoma = system: MALME-3M melanoma
HOP-62 NSCLC = system: HOP-62 NSCLC
TK-10 renal = system: TK-10 renal
NCI-H522 lung = system: NCI-H522 lung
SF-539 CNS = system: SF-539 CNS
SK-MEL-5 melanoma = system: SK-MEL-5 melanoma
SF-295 CNS = system: SF-295 CNS
MDA-MB-231 breast = system: MDA-MB-231 breast
COLO 205 colon = system: COLO 205 colon
K-562 leukemia = system: K-562 leukemia
IGROV1 ovarian = system: IGROV1 ovarian
KM12 colon = system: KM12 colon
SW-620 colon = system: SW-620 colon
HS 578T breast = system: HS 578T breast
RPMI-8226 leukemia = system: RPMI-8226 leukemia
PC-3 prostate = system: PC-3 prostate
M14 melanoma = system: M14 melanoma
NCI/ADR-RES ovarian = system: NCI/ADR-RES ovarian
SK-MEL-2 melanoma = system: SK-MEL-2 melanoma
786-0 renal = system: 786-0 renal
SK-OV-3 ovarian = system: SK-OV-3 ovarian
HL-60(TB) leukemia = system: HL-60(TB) leukemia
HCC-2998 colon = system: HCC-2998 colon
A498 renal = system: A498 renal
SR leukemia = system: SR leukemia
EKVX NSCLC = system: EKVX NSCLC
CAKI-1 renal = system: CAKI-1 renal
T-47D breast = system: T-47D breast
HT29 colon = system: HT29 colon
UACC-62 melanoma = system: UACC-62 melanoma
CCRF-CEM leukemia = system: CCRF-CEM leukemia
BT-549 breast = system: BT-549 breast
SN12C renal = system: SN12C renal
OVCAR-8 ovarian = system: OVCAR-8 ovarian
MCF7 breast = system: MCF7 breast
NCI-H460 lung = system: NCI-H460 lung
UACC-257 melanoma = system: UACC-257 melanoma
SNB-75 CNS = system: SNB-75 CNS
SK-MEL-28 melanoma = system: SK-MEL-28 melanoma
OVCAR-3 ovarian = system: OVCAR-3 ovarian
SNB-19 CNS = system: SNB-19 CNS
HOP-92 NSCLC = system: HOP-92 NSCLC
U251 CNS = system: U251 CNS
A549 NSCLC = system: A549 NSCLC
HCT-15 colon = system: HCT-15 colon

Structure (SMILES): COC(=O)[C@@H](C)C[C@H](Cc1ccccc1)NC(=O)c1nc([C@@H](C[C@H](C(C)C)N(C)C(=O)[C@@H](NC(=O)[C@H]2CC(=O)CCN2C)C(C)C)OC(C)=O)sc1C(C)C
- GI50 (ACHN renal): 794 nM
- TGI (ACHN renal): > 16700 nM
- GI50 (NCI-H23 lung): 456 nM
- TGI (NCI-H23 lung): > 16700 nM
- GI50 (UO-31 renal): 951 nM
- TGI (UO-31 renal): > 10500 nM
- GI50 (NCI-H226 lung): 415 nM
- TGI (NCI-H226 lung): 2950 nM
- GI50 (LOX IMVI melanoma): 110 nM
- TGI (LOX IMVI melanoma): > 16700 nM
- GI50 (MDA-MB-435): 16.9 nM
- TGI (MDA-MB-435): 92.1 nM
- GI50 (MOLT-4 leukemia): 532 nM
- TGI (MOLT-4 leukemia): > 16700 nM
- GI50 (HCT-116 colon): 169 nM
- TGI (HCT-116 colon): 3040 nM
- GI50 (SF-268 CNS): 531 nM
- TGI (SF-268 CNS): > 16700 nM
- GI50 (DU-145 prostate): 115 nM
- TGI (DU-145 prostate): > 5550 nM
- GI50 (OVCAR-4 ovarian): 1340 nM
- TGI (OVCAR-4 ovarian): > 16700 nM
- GI50 (OVCAR-5 ovarian): 617 nM
- TGI (OVCAR-5 ovarian): > 16700 nM
- GI50 (MALME-3M melanoma): 119 nM
- TGI (MALME-3M melanoma): > 16700 nM
- GI50 (HOP-62 NSCLC): 694 nM
- TGI (HOP-62 NSCLC): > 16700 nM
- GI50 (TK-10 renal): 1430 nM
- TGI (TK-10 renal): > 16700 nM
- GI50 (NCI-H522 lung): 54.9 nM
- GI50 (SF-539 CNS): 345 nM
- TGI (SF-539 CNS): 967 nM
- GI50 (SK-MEL-5 melanoma): 86.9 nM
- TGI (SK-MEL-5 melanoma): 1760 nM
- GI50 (SF-295 CNS): 277 nM
- TGI (SF-295 CNS): 3020 nM
- GI50 (MDA-MB-231 breast): 373 nM
- TGI (MDA-MB-231 breast): 3280 nM
- GI50 (COLO 205 colon): 208 nM
- TGI (COLO 205 colon): 1690 nM
- GI50 (K-562 leukemia): 68.4 nM
- TGI (K-562 leukemia): > 16700 nM
- GI50 (IGROV1 ovarian): 111 nM
- TGI (IGROV1 ovarian): > 13500 nM
- GI50 (KM12 colon): 132 nM
- TGI (KM12 colon): > 6760 nM
- GI50 (SW-620 colon): 141 nM
- TGI (SW-620 colon): > 16700 nM
- GI50 (HS 578T breast): 160 nM
- TGI (HS 578T breast): > 3850 nM
- GI50 (RPMI-8226 leukemia): 56 nM
- TGI (RPMI-8226 leukemia): 4380 nM
- GI50 (PC-3 prostate): 129 nM
- TGI (PC-3 prostate): > 16700 nM
- GI50 (M14 melanoma): 217 nM
- TGI (M14 melanoma): 1180 nM
- GI50 (NCI/ADR-RES ovarian): 4110 nM
- TGI (NCI/ADR-RES ovarian): > 16700 nM
- GI50 (SK-MEL-2 melanoma): 104 nM
- TGI (SK-MEL-2 melanoma): > 16700 nM
- GI50 (786-0 renal): 347 nM
- TGI (786-0 renal): 8820 nM
- GI50 (SK-OV-3 ovarian): 809 nM
- TGI (SK-OV-3 ovarian): > 16700 nM
- GI50 (HL-60(TB) leukemia): 52.9 nM
- TGI (HL-60(TB) leukemia): 227 nM
- GI50 (HCC-2998 colon): 141 nM
- TGI (HCC-2998 colon): > 16000 nM
- GI50 (A498 renal): 82.6 nM
- TGI (A498 renal): 818 nM
- GI50 (SR leukemia): 21 nM
- TGI (SR leukemia): > 16700 nM
- GI50 (EKVX NSCLC): 953 nM
- TGI (EKVX NSCLC): > 16700 nM
- GI50 (CAKI-1 renal): 499 nM
- TGI (CAKI-1 renal): > 16700 nM
- GI50 (T-47D breast): 80 nM
- TGI (T-47D breast): > 16700 nM
- GI50 (HT29 colon): 146 nM
- TGI (HT29 colon): > 6970 nM
- GI50 (UACC-62 melanoma): 72.2 nM
- TGI (UACC-62 melanoma): > 16700 nM
- GI50 (CCRF-CEM leukemia): 370 nM
- TGI (CCRF-CEM leukemia): > 16700 nM
- GI50 (BT-549 breast): 97.1 nM
- TGI (BT-549 breast): 2700 nM
- GI50 (SN12C renal): 462 nM
- TGI (SN12C renal): > 16700 nM
- GI50 (OVCAR-8 ovarian): 480 nM
- TGI (OVCAR-8 ovarian): > 16700 nM
- GI50 (MCF7 breast): 42.7 nM
- TGI (MCF7 breast): > 16700 nM
- GI50 (NCI-H460 lung): 270 nM
- TGI (NCI-H460 lung): > 5850 nM
- GI50 (UACC-257 melanoma): > 10800 nM
- TGI (UACC-257 melanoma): > 16700 nM
- GI50 (SNB-75 CNS): 51.8 nM
- TGI (SNB-75 CNS): > 15000 nM
- GI50 (SK-MEL-28 melanoma): 524 nM
- TGI (SK-MEL-28 melanoma): > 16700 nM
- GI50 (OVCAR-3 ovarian): 54.2 nM
- TGI (OVCAR-3 ovarian): 620 nM
- GI50 (SNB-19 CNS): 183 nM
- TGI (SNB-19 CNS): > 16700 nM
- GI50 (HOP-92 NSCLC): 119 nM
- TGI (HOP-92 NSCLC): > 16700 nM
- GI50 (U251 CNS): 352 nM
- TGI (U251 CNS): > 10500 nM
- GI50 (A549 NSCLC): 775 nM
- TGI (A549 NSCLC): > 16700 nM
- GI50 (HCT-15 colon): 524 nM
- TGI (HCT-15 colon): > 16700 nM
